Like-named read-outs stand apart in the source and are kept apart here.
Key:
μOR [1] = target: T1, μOR (Homo sapiens, UniProt P35372); assay: cell-based; format: cell-based; conditions: for EC50: Gi/o EC50 nM
μOR [2] = target: T1, μOR; assay: β-arrestin recruitment at μOR without GRK2; format: cell-based
μOR [3] = target: T1, μOR; assay: β-arrestin recruitment at μOR with GRK2 co-expression; format: cell-based
hMOR = hMOR (Homo sapiens, UniProt P35372); assay: Receptor binding with [3H]diprenorphine at hMOR
Sequence of hMOR (P35372 whole entry): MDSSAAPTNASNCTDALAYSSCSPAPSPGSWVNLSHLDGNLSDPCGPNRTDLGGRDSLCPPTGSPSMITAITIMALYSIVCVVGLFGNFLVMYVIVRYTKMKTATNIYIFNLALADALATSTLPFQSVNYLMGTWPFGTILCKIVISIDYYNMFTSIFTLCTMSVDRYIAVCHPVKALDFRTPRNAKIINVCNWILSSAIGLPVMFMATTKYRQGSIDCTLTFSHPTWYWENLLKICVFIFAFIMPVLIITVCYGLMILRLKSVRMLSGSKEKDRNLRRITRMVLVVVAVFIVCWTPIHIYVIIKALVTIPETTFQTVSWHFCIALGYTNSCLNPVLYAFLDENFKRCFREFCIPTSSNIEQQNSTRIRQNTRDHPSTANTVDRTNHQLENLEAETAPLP

hKOR = hKOR (Homo sapiens, UniProt P41145); assay: Receptor binding with [3H]diprenorphine at hKOR
Sequence of hKOR (P41145 whole entry): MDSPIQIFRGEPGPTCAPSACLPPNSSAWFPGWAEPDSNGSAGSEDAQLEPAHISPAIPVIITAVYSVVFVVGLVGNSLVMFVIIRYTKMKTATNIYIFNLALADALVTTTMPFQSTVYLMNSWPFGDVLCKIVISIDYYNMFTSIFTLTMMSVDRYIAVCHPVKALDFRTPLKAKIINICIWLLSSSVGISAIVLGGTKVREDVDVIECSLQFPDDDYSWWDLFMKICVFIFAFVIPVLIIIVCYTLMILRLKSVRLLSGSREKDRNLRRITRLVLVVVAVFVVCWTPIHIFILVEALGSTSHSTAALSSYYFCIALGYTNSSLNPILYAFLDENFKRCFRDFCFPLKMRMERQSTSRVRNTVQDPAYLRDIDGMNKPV

humanDOR = humanDOR (Homo sapiens, UniProt P41143); assay: Receptor binding with [3H]diprenorphine at human DOR
Sequence of humanDOR (P41143 whole entry): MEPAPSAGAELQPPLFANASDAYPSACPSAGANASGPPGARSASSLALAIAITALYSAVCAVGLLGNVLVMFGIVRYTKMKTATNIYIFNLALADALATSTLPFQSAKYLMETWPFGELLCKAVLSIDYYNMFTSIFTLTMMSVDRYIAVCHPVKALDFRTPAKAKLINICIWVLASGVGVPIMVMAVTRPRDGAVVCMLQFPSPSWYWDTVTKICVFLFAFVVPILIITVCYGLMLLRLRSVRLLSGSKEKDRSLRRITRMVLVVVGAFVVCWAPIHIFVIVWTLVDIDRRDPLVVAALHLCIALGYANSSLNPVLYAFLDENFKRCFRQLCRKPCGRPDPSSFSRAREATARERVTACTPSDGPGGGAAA

[4] = ± SD (two experiments) or SEM, (n) experiments, read-out: hMOR [3H]dyprenorphine Ki
[5] = ± SD (two experiments) or SEM, (n) experiments, read-out: hKOR [3H]dyprenorphine Ki
[6] = ± SD (two experiments) or SEM, (n) experiments, read-out: humanDOR [3H]dyprenorphine Ki
[7] = PZM analogs, (n) = number of independent experiments, read-out: binding affinity Ki hMOR
[8] = PZM analogs, (n) = number of independent experiments, read-out: binding affinity Ki hKOR
[9] = PZM analogs, (n) = number of independent experiments, read-out: binding affinity Ki hDOR

T1 sequence (P35372 whole entry): as the sequence (P35372 whole entry) above

Row | Structure (SMILES) | Gi/o Emax % DAMGO (μOR [1]) | Arrestin Emax % DAMGO (μOR [2]) | Arrestin + GRK2 Emax % DAMGO (μOR [3]) | EC50 (μOR [1]) | EC50 (μOR [2]; read-out: Arrestin EC50) | EC50 (μOR [3]; read-out: Arrestin + GRK2 EC50) | further results
1 | CN(CCc1ccccc1)C(=O)N(C)C[C@H](Cc1ccc(O)cc1)N(C)C [DD109] | No Activity | No Activity | No Activity | – | – | – | Gi/o EC50 nM (μOR [1]): No Activity; Arrestin EC50 nM (μOR [2]): No Activity; Arrestin + GRK2 EC50 nM (μOR [3]): No Activity
2 | CN(C)[C@H](CNC(=O)NC(C)(C)Cc1ccsc1)Cc1ccc(O)cc1 [DD 32L, (S)-1-(2-(dimethylamino)-3-(4-hydroxyphenyl)propyl)-3-(2-methyl-1-(thiophen-3-yl)propan-2-yl)urea] | 52 % DAMGO | 3 % DAMGO | 24 % DAMGO | 23.5 nM | 5.23 nM | 49.4 nM | Ki (hMOR; [4]): 38 nM; Ki (hKOR; [5]): 46 nM; Ki (humanDOR; [6]): 650 nM
3 | C[C@@H](Cc1ccccc1)NC(=O)NC[C@H](Cc1ccc(O)cc1)N(C)C [DD 61L-B, 1-((S)-2-(dimethylamino)-3-(4-hydroxyphenyl)propyl)-3-((S)-1-phenylpropan-2-yl)urea] | 84 % DAMGO | 12 % DAMGO | 79 % DAMGO | 35.5 nM | 84.1 nM | 278 nM | Ki (hMOR; [4]): 42 nM; Ki (hKOR; [5]): 37 nM; Ki (humanDOR; [6]): 360 nM
4 | CN(C)[C@H](CNC(=S)NCCc1ccsc1)Cc1ccc(O)cc1 [DD81, (S)-1-(2-(dimethylamino)-3-(4-hydroxyphenyl)propyl)-3-(2-(thiophen-3-yl)ethyl)thiourea] | 22 % DAMGO | 3 % DAMGO | 27 % DAMGO | 15.1 nM | 24.9 nM | 67.1 nM | –
5 | C[C@@H](Cc1ccsc1)NC(=O)NC[C@H](Cc1ccc(O)c(CO)c1)N(C)C [DD131, 1-((S)-2-(dimethylamino)-3-(4-hydroxy-3-(hydroxymethyl)phenyl)propyl)-3-((S)-1-(thiophen-3-yl)propan-2-yl)urea] | 57 % DAMGO | 11 % DAMGO | 45 % DAMGO | 7.94 nM | 230 nM | 213 nM | –
6 | C[C@@H](Cc1ccsc1)NC(=O)NC[C@H](Cc1cccc(O)c1)N(C)C [DD 47LS, 1-((S)-2-(dimethylamino)-3-(3-hydroxyphenyl)propyl)-3-((S)-1-(thiophen-3-yl)propan-2-yl)urea] | 73 % DAMGO | 12 % DAMGO | 70 % DAMGO | 17 nM | 357 nM | 211 nM | Ki (hMOR; [4]): 34 nM; Ki (hKOR; [5]): 46 nM; Ki (humanDOR; [6]): 350 nM
7 | C[C@@H](Cc1csc2ccccc12)NC(=O)NC[C@H](Cc1ccc(O)cc1)N(C)C [DD63L-B] | 88 % DAMGO | 38 % DAMGO | 92 % DAMGO | 5.7 nM | 397 nM | 82.1 nM | –
8 | CN(C[C@H](Cc1ccc(O)cc1)N(C)C)C(=O)NCCc1ccccc1 [DD108] | 86 % DAMGO | 120 % DAMGO | 118 % DAMGO | 35.1 nM | 4710 nM | 1490 nM | EC50 (μOR [3]; read-out: Arrestin + GRK2 pEC50 (converted)): 1490 nM
9 | C[C@@H](NC(=O)[C@@H](N)Cc1ccc(O)cc1)C(=O)NCC(=O)N(C)[C@@H](Cc1ccccc1)C(=O)NCCO [DAMGO, reference compound] | – | 100 % DAMGO | 100 % DAMGO | – | – | – | –
10 | C[C@H](Cc1ccsc1)NC(=O)NC[C@H](Cc1ccc(O)cc1)N(C)C [(S,R)-21, 1-[(S)-2-(Dimethylamino)-3-(4-hydroxyphenyl)propyl]-3-((R)-1-(thiophen-3-yl)propan-2-yl)urea] | – | – | – | – | – | – | Gi/o activation, μOR agonist activity (in words) (μOR [1]): more potent partial agonist of the μOR as compared to (S,S)-21
11 | CC[C@@H](Cc1ccsc1)NC(=O)NC[C@H](Cc1ccc(O)cc1)N(C)C [DD88B, 1-((S)-2-(dimethylamino)-3-(4-hydroxyphenyl)propyl)-3-((S)-1-(thiophen-3-yl)butan-2-yl)urea] | – | 5 % DAMGO | 45 % DAMGO | – | – | – | –
12 | CN(C)[C@H](CNC(=O)NCCc1ccccc1)Cc1ccc(O)cc1 [DD90] | 76 % DAMGO | 5 % DAMGO | 31 % DAMGO | 4.25 nM | 53.5 nM | 144 nM | –
13 | CN(C)[C@H](CNC(=O)NC1Cc2ccccc2C1)Cc1ccc(O)cc1 [DD 57L, (S)-1-(2,3-dihydro-1H-inden-2-yl)-3-(2-(dimethylamino)-3-(4-hydroxyphenyl)propyl)urea] | No Activity | No Activity | No Activity | – | – | – | Gi/o EC50 nM (μOR [1]): No Activity; Ki (hMOR; [4]): 8.3 nM; Ki (hKOR; [5]): 40 nM; Ki (humanDOR; [6]): 74 nM; Arrestin EC50 nM (μOR [2]): No Activity; Arrestin + GRK2 EC50 nM (μOR [3]): No Activity
14 | CN(CCc1ccccc1)C(=O)NC[C@H](Cc1ccc(O)cc1)N(C)C [DD102] | 76 % DAMGO | 30 % DAMGO | 61 % DAMGO | 37.9 nM | 1980 nM | 1500 nM | EC50 (μOR [2]; read-out: Arrestin pEC50 (converted)): 1980 nM
15 | C[C@@H](Cc1ccsc1)NC(=O)NC[C@H](Cc1ccccc1)N(C)C [(S,S)-12, 1-[(S)-2-(Dimethylamino)-3-phenylpropyl]-3-[(S)-1-(thiophen-3-yl)propan-2-yl]urea] | – | – | – | – | – | – | Gi/o activation, μOR agonist activity (in words) (μOR [1]): most potent and efficacious Gi/o signaling agonist among the four isomers
16 | CN(C)[C@H](CNC(=O)NC(C)(C)Cc1ccsc1)Cc1cccc(O)c1 [DD 46L, (S)-1-(2-(dimethylamino)-3-(3-hydroxyphenyl)propyl)-3-(2-methyl-1-(thiophen-3-yl)propan-2-yl)urea] | – | – | – | – | – | – | Ki (hMOR; [4]): 25 nM; Ki (hKOR; [5]): 32 nM; Ki (humanDOR; [6]): 190 nM
17 | C[C@@H](Cc1ccsc1)NC(=O)NCC(Cc1ccc(O)cc1)N(C)Cc1ccccc1 (some centres unmarked) | – | – | – | – | – | – | Ki (hMOR; [7]): 220 nM; Ki (hKOR; [8]): 210 nM; Ki (humanDOR; [9]): 720 nM
18 | CN(CCc1ccccc1)C(=O)NC[C@H](Cc1ccc(O)cc1)N(C)C [drawing 504] | – | – | – | – | – | – | Ki (hMOR; [7]): 320 nM; Ki (hKOR; [8]): 160 nM; Ki (humanDOR; [9]): 1200 nM
19 | CN(C)[C@@H](CNC(=O)NC(C)(C)Cc1ccsc1)Cc1ccc(O)cc1 | – | – | – | – | – | – | Ki (hMOR; [7]): 310 nM; Ki (hKOR; [8]): 1300 nM; Ki (humanDOR; [9]): 2900 nM
20 | CN(C)[C@H](CNC(=O)NCCc1ccsc1)Cc1ccccc1 | – | – | – | – | – | – | Ki (hMOR; [7]): 350 nM; Ki (hKOR; [8]): 3100 nM; Ki (humanDOR; [9]): 4500 nM
21 | Cc1cc(O)cc(C)c1C[C@@H](CNC(=O)N[C@@H](C)Cc1ccsc1)N(C)C [drawing 538] | – | – | – | – | – | – | Ki (hMOR; [7]): 12 nM; Ki (hKOR; [8]): 6.5 nM; Ki (humanDOR; [9]): 85 nM
22 | CN(CC1CC1)[C@H](CNC(=O)NCCc1ccccc1)Cc1ccc(O)cc1 [DD184] | 40 % DAMGO | No Activity | No Activity | 559 nM | – | – | Arrestin EC50 nM (μOR [2]): No Activity; Arrestin + GRK2 EC50 nM (μOR [3]): No Activity
23 | CN(C)[C@H](CNC(=O)NC(C)(C)Cc1ccccc1)Cc1ccc(O)cc1 [drawing 530] | – | – | – | – | – | – | Ki (hMOR; [7]): 46 nM; Ki (hKOR; [8]): 91 nM; Ki (humanDOR; [9]): 920 nM

— patent US20200109126A1 (priority 2017, published 2020)
